This note sets out measurements from US20210212957A1, “MEDICAL DEVICE FOR PREVENTING AND/OR TREATING INFECTIONS OF SKIN LESIONS” (FASTMEDITALIA S.R.L., priority 2020, published 2021).

The subject of the assay is Staphylococcus aureus (gram-positive bacterium; ATCC 6538). The experiment in a line: bacterial reduction in a bacterial suspension in dynamic contact with the medical device. Conditions: temperature environment; dynamic contact time 1 hour; 50 grams of bacterial suspension at 10^5 cells, 1 gram of medical device where present. Type of assay: cell-based. How it is done:
In Table 1, 50 grams of bacterial suspension at a concentration of 10^5 cells was subjected to dynamic contact with 1 gram of the medical device in the presence of cocamido-propyl-betaine (an amphoteric surfactant).
The same experiment was then carried out using no surfactant at all (Table 2) or non-ionic or anionic surfactants (Tables 3 and 4).
Consider “cocamidopropyl betaine [2 g/l of cocamidopropyl betaine]”, for which the Bacterial reduction % is given as 12%.

For `CCCCCCCCCCCCOS(=O)(=O)[O-].[Na+]` [Sodium dodecilsulphate], the Bacterial reduction % was determined as 16%.

Take Polyoxyethylenesorbitan monolaurate: the Bacterial reduction % came out at 5%.
